Source: patent US20210275419A1, “Personal Care Compositions” (Colgate-Palmolive Company, priority 2020, published 2021)

Tested on: tyrosinase
Test: tyrosinase inhibitor screening kit (Sigma Aldrich, MAK 257 Kit)
Type: biochemical
Conditions: Example 4; 0.156 wt. %
Method: (§1) The anti-tyrosinase activity of an exemplary composition of the present invention was compared to the anti-tyrosinase activity of individual short chain fatty acids. Assays were performed using a tyrosinase inhibitor screening kit from Sigma Aldrich; and following the manufacturer's protocol. The results of these experiments are described in Table 1 (below).
as §1, with “Aldrich (MAK 257 Kit);” for “Aldrich;”, “4” for “1”, “(below). […]” for “(below).”
Peels were diluted 1000× in buffer to prepare 0.1% working stock. […] The pH of all test samples and dilutions was measured before and after tyrosinase assay to exclude any effect of acid on the enzyme activity. […] LMP peels containing various concentrations of pyruvic acid at pH 2.5 (“R1 Peels”); LMP peels which were identically formulated to the R1 Peels, but with pH buffered to 3.6 (“R2 Peels”); and LMP′ peels which were identically formulated to the R2 Peels, other than the replacement of pyruvic acid with sodium pyruvate (“R3 Peels”), were all evaluated.

`O=C(O)C(O)c1ccccc1` (stereo not shown) [Mandelic Acid (M), Mandelic Acid] was tested, and the “% Tyrosinase Inhibition” value was 0.06%.
